Test results reported in PMC5789824, “A presumed homologue of the regulatory subunits of eIF2B functions as ribose-1,5-bisphosphate isomerase in Pyrococcus horikoshii OT3” (Scientific Reports, 2018).
Like-named read-outs stand apart in the source and are kept apart here.

Legend:
[1] = system: ribose-1,5-bisphosphate isomerase (R15Pi); design: method as in PMID 23065974; conditions: result in words; cited from earlier work
[2] = target: T1, PH0208 protein (PH0208-WT, PH0208-C135S, PH0208-D204N) (Pyrococcus horikoshii, UniProt O57947, M1V); assay: Co-crystallization or soaking with ribonucleotides (crystal structure complexes); type: binding, Pyrococcus horikoshii OT3; conditions: for binding of ribonucleotide seen in crystal structure (electron density): co-crystallization or soaking of PH0208-WT, -C135S, -D204N; for preferred molecule at the 'AMP binding site': crystallized in presence of both AMP (1.5 mM) and GMP (4.5 mM)
T1 construct: an N-terminal α-helical domain (residues 1–122) and a C-terminal α-β-α sandwich domain (residues 123–324); made in house; host or cells: Escherichia coli Rosetta (DE3)
T1 sequence (O57947 whole entry M1V, the tested form may be a part): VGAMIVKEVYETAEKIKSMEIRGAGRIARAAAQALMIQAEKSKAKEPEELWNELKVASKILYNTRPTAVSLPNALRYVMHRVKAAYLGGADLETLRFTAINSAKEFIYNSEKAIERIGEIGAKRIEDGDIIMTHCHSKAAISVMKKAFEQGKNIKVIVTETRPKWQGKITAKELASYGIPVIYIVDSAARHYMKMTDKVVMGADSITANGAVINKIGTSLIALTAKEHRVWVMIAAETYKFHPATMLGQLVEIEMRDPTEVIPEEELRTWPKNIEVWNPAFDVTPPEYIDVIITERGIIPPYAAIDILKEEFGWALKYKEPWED
Method: To identify the binding site of ribonucleotides, either co-crystallization or soaking of PH0208-WT, PH0208-C135S and PH0208-D204N proteins with AMP, GMP, CMP and TMP was performed. […] The binding site of AMP lies at the interface of three monomers (chain A, B and D) of the hexameric protein (Fig. 4a). The side chains of Arg124 and Asp290 of chain A undergoes a shift towards AMP to form hydrogen bond with the O2′ and O3′ oxygen atoms of the ribose sugar (Fig. 4b). Another two residues of chain A, Arg229 and Trp231 are involved in interacting with the phosphate groups of the AMP molecule. The side chain atoms of Asn209 and the backbone atoms of Val251 of chain B forms hydrogen bond with the oxygen (O2′ and O3′) atoms of the ribose sugar and the nitrogen (N1 and N6) atom of the adenosine base ring, respectively. Along with chain A and chain B, AMP also binds to a third protomer of the hexameric protein through interactions involving the side chain atoms of Arg190 and Lys194 of chain D (Fig. 4c). Thus, one AMP molecule positions itself to hold three protomers of the hexamer. All the amino acid residues of PH0208 protein forming hydrogen bond with AMP are found to be absolutely conserved in R15Pi enzymes. […] In case of both the mutants, PH0208-C135S and PH0208-D204N, AMP occupies a similar position to that of PH0208-WT protein with the major interactions arising from the three subunits of the hexamer. Similar to PH0208-WT, the adenosine base ring interacts with Val251 of chain B, the oxygen atoms of ribose sugar interacts with Arg124 & Asp290 of chain A and Asn209 of chain B while the phosphate group forms hydrogen bond with Arg229 & Trp231 of chain A and Arg190 & Lys194 of chain D of the mutant proteins (Fig. 4d–f).
To obtain crystals of PH0208-WT, an initial screening was performed by mixing 2 μl of protein and 2 μl of crystallization condition available in Crystal Screen, Crystal Screen 2 and PEG/Ion kits from Hampton research at 277 K and 293 K by the microbatch-under-oil technique. Further refinement of one of the conditions containing 2.0 M NaCl and 10% (w/v) PEG 6000 using hanging-drop vapor-diffusion technique in 24-well plate was performed to obtain better crystals. However, crystals of the apo form of PH0208-WT protein diffracted very poorly. To obtain diffraction quality crystals, the substrate (R15P) was added to the crystallization drop which was then equilibrated against 500 μl of 0.7 M NaCl and 3% PEG 6000. Yet, the crystals formed diffracted to a resolution of ~7 Å, only. […] For co-crystallization of PH0208-WT, PH0208-C135S and PH0208-D204N with different ligands, the final protein concentration was kept at 9.5, 9.0 and 7.0 mg ml^−1, respectively in 20 mM Tris-HCl pH 8.0 and 150 mM KCl. The final concentration of R15P in the crystallization drops were 8.33–9 mM while that of AMP, GMP, CMP and TMP were 1.66, 4.5 & 9, 1.66 and 9 mM, respectively. In case of ligand soaking, the concentration of AMP was kept at 5 mM. For obtaining the crystals of ligand bound PH0208-C135S and PH0208-D204N complexes, the reservoir buffer was further supplemented with 0.1–0.3% of low melting (LM) agarose. All the crystals were obtained in hanging-drop vapor-diffusion method at 20 °C within a period of 2–7 days.

[3] = target: T2, PH0208-C135A mutant protein (Pyrococcus horikoshii, UniProt O57947, C135A); assay: biochemical; type: binding, Pyrococcus horikoshii OT3
T2 construct: an N-terminal α-helical domain (residues 1–122) and a C-terminal α-β-α sandwich domain (residues 123–324); made in house; host or cells: Escherichia coli Rosetta (DE3)
T2 sequence (O57947 whole entry C135A, the tested form may be a part): as the sequence (O57947 whole entry M1V, the tested form may be a part) above, with V1M, C135A counted along it
Method: Henceforth, Cys135 was mutated to alanine (PH0208-C135A) to understand its role in ligand (R15P/RuBP) binding.
(§1) ITC experiments of mutant proteins (PH0208-C135S, PH0208-C135A and PH0208-D204N) with the substrate (R15P) and the product (RuBP) molecules were measured at 25 °C using MicroCal iTC200. Before ITC experiments, the proteins were dialyzed extensively in buffer (20 mM Tris-HCl pH 8.0 and 150 mM KCl) and the equilibrated buffer was subsequently used to prepare ligand solutions to minimize the heat of dilution effects. Each titration consisted of a preliminary injection of 0.4 μl of 7.5–8.0 mM of R15P and RuBP followed by 24 injections of 1.2 μl (spacing 120 s) into the sample cell filled with protein at a final concentration of 75–80 μM. During titration, the syringe rotated at a speed of 450 rpm to facilitate adequate mixing of the reactants. Data were analyzed using MicroCal ORIGIN software and baselines were subtracted from data to obtain accurate heat exchanges.

[4] = target: T3, PH0208-D204N mutant protein (Pyrococcus horikoshii, UniProt O57947, D204N); assay: biochemical; type: binding, Pyrococcus horikoshii OT3
T3 construct: an N-terminal α-helical domain (residues 1–122) and a C-terminal α-β-α sandwich domain (residues 123–324); made in house; host or cells: Escherichia coli Rosetta (DE3)
T3 sequence (O57947 whole entry D204N, the tested form may be a part): as the sequence (O57947 whole entry M1V, the tested form may be a part) above, with V1M, D204N counted along it
Method: (§2) To determine the binding affinity of the substrate (R15P) and the product (RuBP) to the protein PH0208, isothermal titration calorimetry (ITC) experiments were performed. Since binding of the substrate to the PH0208-WT protein triggers a conformational change along with the formation of the product, the heat change measured during the ITC experiment would reflect the sum of heat generated and absorbed during each event. As a result, the binding affinity (Kd) of PH0208 and R15P/RuBP obtained would be delusional. Therefore, binding affinity was studied using the mutant proteins, PH0208-C135S and PH0208-D204N in which case the heat change would be solely due to ligand binding.
as §1

[5] = target: T4, PH0208-C135S mutant protein (Pyrococcus horikoshii, UniProt O57947, C135S); assay: biochemical; type: binding, Pyrococcus horikoshii OT3
T4 construct: an N-terminal α-helical domain (residues 1–122) and a C-terminal α-β-α sandwich domain (residues 123–324); made in house; host or cells: Escherichia coli Rosetta (DE3)
T4 sequence (O57947 whole entry C135S, the tested form may be a part): as the sequence (O57947 whole entry M1V, the tested form may be a part) above, with V1M, C135S counted along it
Method: as §2, §1

C[S+](CC[C@H](N)C(=O)[O-])C[C@H]1O[C@@H](n2cnc3c(N)ncnc32)[C@H](O)[C@@H]1O (stereo partly shown) [SAM, S-adenosyl methionine]
effect on enzymatic activity / catalytic efficiency of R15Pi [1]: inability

Nc1ncnc2c1ncn2[C@@H]1O[C@H](COP(=O)(O)O)[C@@H](O)[C@H]1O [AMP, adenosine 5′-monophosphate]
effect on enzymatic activity / catalytic efficiency of R15Pi [1]: activator of R15Pi
binding of ribonucleotide seen in crystal structure (electron density) [2]: bound to the proteins
preferred molecule at the 'AMP binding site' [2]: AMP outcompete GMP and binds to the ‘AMP binding site’

O=P(O)(O)OC[C@H]1OC(OP(=O)(O)O)[C@H](O)[C@@H]1O (stereo partly shown) [R15P, ribose-1,5-bisphosphate]
interaction with PH0208-C135A (ITC) ([3]; ITC, 25 °C, result in words): did not show any interaction
Ka ([4]; ITC, 25 °C): 99100 ± 2630 M⁻¹
T∆S ([4]; ITC, 25 °C): 7.77 kcal/mol
∆G ([4]; ITC, 25 °C): -6.8 kcal/mol
∆H ([4]; ITC, 25 °C): 0.981 ± 0.049 kcal/mol
Kd ([4]; ITC, 25 °C, read-out: Kd): 10 µM
Ka ([5]; ITC, 25 °C): 72000 ± 7130 M⁻¹
T∆S ([5]; ITC, 25 °C): 7.03 kcal/mol
∆G ([5]; ITC, 25 °C): -6.6 kcal/mol
∆H ([5]; ITC, 25 °C): 0.403 ± 0.013 kcal/mol
N ([5]; ITC, 25 °C, single-site model, '(fixed)' = fixed in fit): 1.17 ± 0.03
Kd ([5]; ITC, 25 °C, read-out: Kd): 13.8 µM

Nc1ncnc2c1ncn2[C@@H]1O[C@H](COP(=O)(O)OP(=O)(O)OP(=O)(O)O)[C@@H](O)[C@H]1O [ATP, adenosine 5ʹ-triphosphate]
effect on enzymatic activity / catalytic efficiency of R15Pi [1]: inability

O=C(COP(=O)(O)O)[C@H](O)[C@H](O)COP(=O)(O)O [RuBP, ribulose-1,5-bisphosphate]
Kd [3]: 309 µM
Ka ([3]; ITC, 25 °C): 3.23 × 10^3 ± 299 M^−1
T∆S ([3]; ITC, 25 °C): -4.14 kcal/mol
∆G ([3]; ITC, 25 °C): -4.8 kcal/mol
∆H ([3]; ITC, 25 °C): -8.94 ± 0.40 kcal/mol
Kd [4]: 7.2 µM
Ka ([4]; ITC, 25 °C): 139000 ± 12000 M⁻¹
T∆S ([4]; ITC, 25 °C): 4.05 kcal/mol
∆G ([4]; ITC, 25 °C): -7.0 kcal/mol
∆H ([4]; ITC, 25 °C): -2.95 ± 0.06 kcal/mol
Kd [5]: 7.5 µM
Ka ([5]; ITC, 25 °C): 133000 ± 72100 M⁻¹
T∆S ([5]; ITC, 25 °C): 2.24 kcal/mol
∆G ([5]; ITC, 25 °C): -6.98 kcal/mol
∆H ([5]; ITC, 25 °C): -4.74 ± 0.39 kcal/mol

Nc1ncnc2c1ncn2[C@@H]1O[C@H](CSCC[C@H](N)C(=O)O)[C@@H](O)[C@H]1O [SAH, S-adenosyl homocysteine]
effect on enzymatic activity / catalytic efficiency of R15Pi [1]: inability

Cc1cn([C@H]2C[C@H](O)[C@@H](COP(=O)(O)O)O2)c(=O)[nH]c1=O [TMP, thymidine 5′-monophospahte]
effect on enzymatic activity / catalytic efficiency of R15Pi [1]: neither cytosine 5′-monophosphate (CMP) nor thymidine 5′-monophospahte (TMP) possesses the ability to increase the enzymatic activity
binding of ribonucleotide seen in crystal structure (electron density) [2]: no electron density

Nc1nc2c(ncn2[C@@H]2O[C@H](COP(=O)(O)O)[C@@H](O)[C@H]2O)c(=O)[nH]1 [GMP, guanosine 5′-monophosphate]
effect on enzymatic activity / catalytic efficiency of R15Pi [1]: elevates the activity of R15Pi, though to a lesser extent as compared to AMP
binding of ribonucleotide seen in crystal structure (electron density) [2]: bound to the proteins
preferred molecule at the 'AMP binding site' [2]: GMP binds to the ‘GMP binding loop’

Nc1ccn([C@@H]2O[C@H](COP(=O)(O)O)[C@@H](O)[C@H]2O)c(=O)n1 [CMP, cytosine 5′-monophosphate]
effect on enzymatic activity / catalytic efficiency of R15Pi [1]: neither cytosine 5′-monophosphate (CMP) nor thymidine 5′-monophospahte (TMP) possesses the ability to increase the enzymatic activity
binding of ribonucleotide seen in crystal structure (electron density) [2]: no electron density
